According to ChEMBL document CHEMBL4043090 (Bioorg Med Chem, 2017):

What was measured:
[1] = Cytotoxicity against human MAGI-CCR5 cells assessed as reduction in cell viability after 48 hrs by MTS assay; type: cell-based; conditions: read-out: TC50
[2] = system: Human immunodeficiency virus 1; experiment: Antiviral activity against HIV-1 Bal infected in human MAGI-CCR5 cells assessed as reduction in viral infection after 48 hrs by fluorescence based beta-galactosidase reporter gene assay; type: functional, cell-based; conditions: for IC50 / IC90: Human immunodeficiency virus 1, Bal, MAGI-CCR5, 48 h
[3] = Therapeutic index, ratio of TC50 for human MAGI-CCR5 cells to IC50 for HIV-1 Bal infected in MAGI-CCR5 cells
PBMC = experiment: Antiviral activity against HIV-1 Bal infected in human PBMC by MTS assay; type: functional, cell-based
[4] = Cytotoxicity against human PBMC assessed as reduction in cell viability by MTS assay; type: cell-based; conditions: read-out: TC50 (the source's name)
[5] = Therapeutic index, ratio of TC50 for human PBMC to IC50 for HIV-1 Bal infected in human PBMC
[6] = Metabolic stability in rat plasma assessed as compound remaining at 100 uM after 1 hr by LC/MS analysis; type: ADME, cell-free; conditions: read-out: Stability
[7] = Metabolic stability in rat liver microsomes assessed as compound remaining at 4 uM preincubated for 5 mins followed by NADPH addition measured after 60 mins by LC/MS analysis; type: ADME, microsome; conditions: read-out: Stability
[8] = Therapeutic index, ratio of TC50 for human MAGI-CCR5 cells to IC50 for HIV-1 NL4-3 infected in MAGI-CCR5 cells
[9] = system: Human immunodeficiency virus 1; type: functional, cell-based; conditions: Human immunodeficiency virus 1, A17, MAGI-CCR5, 48 h
[10] = system: Human immunodeficiency virus 1; experiment: microbe, parasite or virus in culture; conditions: Human immunodeficiency virus 1, NL4-3, MAGI-CCR5, 48 h
Description: Antiviral activity against wild type HIV-1 NL4-3 infected in human MAGI-CCR5 cells assessed as reduction in viral infection after 48 hrs by fluorescence based beta-galactosidase reporter gene assay

Row | Structure (SMILES) | CC50 at 48 h [1] [µM] | Activity [2] | IC50 [2] [µM] | IC90 [2] [µM] | TI [3] | IC50 (PBMC) [µM] | IC90 (PBMC) [µM] | CC50 [4] [µM] | TI [5] | remaining at 1 h, 100 µM [6] [%] | remaining at 1 h, 4 µM [7] [%] | TI [8] | IC50 [9] [µM] | IC90 [9] [µM] | IC50 [10] [µM] | IC90 [10] [µM]
1 | CC1=C(c2nc(-c3ccc(C#N)cc3)cs2)C(c2ccc(Cl)nc2)NC(=O)N1 (centres undefined) | > 100 | Dose-dependent effect | 0.48 | 2.4 | 208 | 0.38 | 0.94 | > 100 | 263 | 91.7 | 63.4 | – | – | – | – | –
2 | CC1=C(c2nc(-c3ccc(C#N)cc3)cs2)C(c2ccc(Br)nc2)NC(=O)N1 (centres undefined) | > 100 | Dose-dependent effect | 0.35 | 1.4 | 286 | 0.21 | 0.57 | > 100 | 476 | 98.3 | 67.6 | >200 | > 100 | > 100 | 0.5 | 3.2
3 | CC1=C(c2nc(-c3ccc(C#N)cc3)cs2)C(c2ccc(F)nc2)NC(=O)N1 (centres undefined) | > 100 | Dose-dependent effect | 1.1 | 5.4 | 91 | 0.59 | 2 | > 100 | 170 | 100 | 49.4 | >91 | > 100 | > 100 | 1.1 | 7.6
4 | COc1cccc(C2NC(=O)NC(C)=C2c2nc(-c3ccc(C#N)cc3)cs2)c1 (centres undefined) | > 100 | Dose-dependent effect | 0.38 | 1.8 | 263 | 0.56 | 1.6 | > 100 | 179 | – | – | – | – | – | – | –
5 | COc1cccc(C2NC(=O)NC(C)=C2c2nc(-c3ccc(C#N)cc3)cs2)n1 (centres undefined) | > 100 | Dose-dependent effect | 1.6 | 14.4 | 63 | 1.6 | 5.9 | > 100 | 63 | – | – | – | – | – | – | –
6 | CC1=C(c2nc(-c3ccc(Br)cc3)cs2)C(c2cccc(O)c2)NC(=O)N1 (centres undefined) | 60 | Dose-dependent effect | 2.3 | 15 | 26 | 3.6 | 12 | 56 | 16 | – | – | – | – | – | – | –
7 | CC1=C(c2nc(-c3ccc(C#N)cc3)cs2)C(c2ccc(Oc3ccccc3)cc2)NC(=O)N1 (centres undefined) | > 10 | Dose-dependent effect | 0.12 | 0.62 | 83 | 0.53 | 1.8 | > 100 | 189 | – | – | – | – | – | – | –
8 | CC1=C(c2nc(-c3ccc(C#N)cc3)cs2)C(c2cccc(O)c2)NC(=O)N1C (centres undefined) | > 100 | Dose-dependent effect | 2.4 | 13.8 | 42 | 3.2 | 8.5 | > 100 | 31 | – | – | – | – | – | – | –
9 | CC1=C(c2nc(-c3cccc(C#N)c3)cs2)C(c2ccc(O)cc2)NC(=O)N1 (centres undefined) | 69.6 | Dose-dependent effect | 4.4 | 40.9 | 16 | 3.3 | 10.2 | 87.5 | 27 | – | – | – | – | – | – | –
10 | CC1=C(c2nc(-c3ccc(C(F)(F)F)cc3)cs2)C(c2cccc(O)c2)NC(=O)N1 (centres undefined) | 40 | Dose-dependent effect | 5.2 | 23 | 7.7 | 5.9 | 18 | 57 | 9.7 | – | – | – | – | – | – | –
11 | CC1=C(c2nc(-c3ccc(F)cc3)cs2)C(c2cccc(O)c2)NC(=O)N1 (centres undefined) | 60 | Dose-dependent effect | 3.8 | 50 | 16 | 8 | 18 | 58 | 7.3 | – | – | – | – | – | – | –
12 | CC1=C(c2nc(-c3ccc(C#N)cc3)cs2)C(c2ccc(C(F)(F)F)nc2)NC(=O)N1 (centres undefined) | > 100 | Dose-dependent effect | 1.1 | 7.3 | 91 | 1.2 | 4.6 | > 100 | 83 | – | – | >116 | > 100 | > 100 | 0.86 | 7.7
13 | COc1ccc(C2NC(=O)NC(C)=C2c2nc(-c3ccc(C#N)cc3)cs2)cc1 (centres undefined) | 7 | Dose-dependent effect | 0.08 | 0.37 | 88 | 0.12 | 0.3 | 76.6 | 638 | 96 | 63.1 | 110 | 3.4 | 24 | 0.05 | 0.62
14 | CC1=C(c2nc(-c3ccc(C#N)cc3)cs2)C(c2ccc(Cl)nc2Cl)NC(=O)N1 (centres undefined) | > 100 | Dose-dependent effect | 0.86 | 5.8 | 116 | 1.9 | 5.7 | 99.1 | 52 | – | – | – | – | – | – | –
15 | CC1=C(c2nc(-c3cccc(C#N)c3)cs2)C(c2cccc(O)c2)NC(=O)N1C (centres undefined) | > 100 | Dose-dependent effect | 55.4 | 89.2 | 1.8 | 14.5 | 59.6 | 64.2 | 4.4 | – | – | – | – | – | – | –
16 | CC1=C(c2nc(-c3ccc(C#N)cc3)cs2)C(c2ccc(OC(F)(F)F)cc2)NC(=O)N1 (centres undefined) | > 100 | Dose-dependent effect | 1.6 | 7.6 | 63 | 8.6 | 21 | > 100 | 12 | – | – | – | – | – | – | –
17 | CC1=C(c2nc(-c3ccc(C#N)cc3)cs2)C(c2ccc3ccccc3n2)NC(=O)N1 (centres undefined) | > 100 | Dose-dependent effect | 1.5 | 12.7 | 67 | 1.3 | 5.5 | > 100 | 77 | – | – | – | – | – | – | –
18 | CC1=C(c2nc(-c3cccc(O)c3)cs2)C(c2cccc(O)c2)NC(=O)N1 (centres undefined) | 89 | Dose-dependent effect | 68 | 98 | 1.3 | 40 | 85 | 55 | 1.4 | – | – | – | – | – | – | –
19 | CC1=C(c2nc(-c3ccc(C#N)cc3)cs2)C(c2ccnc3ccccc23)NC(=O)N1 (centres undefined) | > 100 | Dose-dependent effect | 3.8 | 98.3 | 26 | 2.9 | 10.5 | 68.3 | 24 | – | – | – | – | – | – | –
20 | COc1ccc(C2NC(=O)NC(C)=C2c2nc(-c3ccc(C#N)cc3)cs2)cc1O (centres undefined) | > 100 | Dose-dependent effect | 0.38 | 37.8 | 263 | 0.15 | 0.42 | > 100 | 667 | – | – | – | – | – | – | –
21 | CC1=C(c2nc(-c3ccc(C#N)cc3)cs2)C(c2cccc(O)c2)NC(=O)N1 (centres undefined) | 98 | Dose-dependent effect | 0.44 | 2.1 | 223 | 0.19 | 0.66 | 84 | 442 | 88.5 | 52.4 | – | – | – | – | –
22 | CC1=C(c2nc(-c3ccc(C#N)cc3)cs2)C(c2cccnc2F)NC(=O)N1 (centres undefined) | > 100 | Dose-dependent effect | 0.44 | 2.6 | 227 | 0.26 | 0.83 | > 100 | 385 | – | – | – | – | – | – | –
23 | CC1=C(c2nc(-c3ccc(C)cc3)cs2)C(c2cccc(O)c2)NC(=O)N1 (centres undefined) | 61 | Dose-dependent effect | 31 | 80 | 2 | 16 | 48 | 65 | 4.1 | – | – | – | – | – | – | –
24 | COc1ncccc1C1NC(=O)NC(C)=C1c1nc(-c2ccc(C#N)cc2)cs1 (centres undefined) | > 100 | Dose-dependent effect | 3.8 | 66 | 26 | 2.6 | 7.3 | > 100 | 39 | – | – | – | – | – | – | –
25 | CC1=C(c2nc(-c3ccc4ccccc4c3)cs2)C(c2cccc(O)c2)NC(=O)N1 (centres undefined) | 55 | Dose-dependent effect | 43 | 84 | 1.3 | 13 | 29 | 47 | 3.6 | – | – | – | – | – | – | –
26 | CC1=C(c2nc(-c3ccc(C#N)cc3)cs2)C(c2cncc(F)c2)NC(=O)N1 (centres undefined) | > 100 | Dose-dependent effect | 0.7 | > 100 | 143 | 0.53 | 1.3 | > 100 | 189 | – | – | – | – | – | – | –
